Experiments:
[1] = In-vivo pharmacokinetic study in mice; conditions: mouse, plasma
Description: In in-vivo study, the average mouse weight was 24 ± 5 g. Mice were acclimated for 7 days prior to the study and fasted for 24 h before the study. All in-vivo experiments were approved by the ethical committee, Faculty of Pharmacy, Gomal University (No: 10/ERB/GU). The mice were anesthetized under gas anesthesia (i.e., isoflurane in oxygen (2–4% (v/v))). Bulk hairs were removed with an electrical clipper and then a depilatory cream was applied to remove the remaining hair that could interfere with the insertion of LS-TC-MNP [41, 42]. Hairs were removed from the back area of mouse at 4 h prior to experiment. Mice were divided into two groups (n = 16 per group (total: 32)); oral (given the oral LS dispersion) and transdermal (LS-TC-MNP inserted in skin). Mice in the oral group received an oral LS dispersion of (200 mg/kg). The transdermal group was the LS-TC-MNP treatment group, in which each mouse was treated with (LS = 25 mg) LS-TC-MNP. To facilitate the insertion of LS-TC-MNP, the mice were anesthetized by gas anesthesia. The mice skin was pinched, and LS-TC-MNP attached to self-adhesive margins was inserted with firm finger pressure onto the back of each mouse. Blood samples were withdrawn by bleeding the tail vein at predetermined time intervals. The study plan was 16 mice per group and a maximum of (n = 3) blood samples was withdrawn from each mouse. Each mouse was bled twice a day. After 1 and 4 h, blood was withdrawn from the first 4 mice; the next 4 mice were bled after 2 and 6 h; the next four mice at 8 and 24 h; the remaining 4 mice at 12 h; and all mice (n = 16) at 48 h. The area under the curve and other pharmacokinetic parameters were measured by using Pk solver software (Microsoft Excel add-in programm).

[2] = cited from earlier work

concentration at 1 h ([1]; 1 h, patch LS = 25 mg transdermal or oral dispersion 200 mg/kg): 500 ± 1940 ng/mL | concentration at 2 h ([1]; 2 h, oral dispersion 200 mg/kg, read-out: LS plasma concentration): 200 ng/mL | concentration at 4 h ([1]; 4 h, oral dispersion 200 mg/kg, read-out: LS plasma concentration): 180 ng/mL | concentration at 6 h ([1]; 6 h, patch LS = 25 mg transdermal or oral dispersion 200 mg/kg): 400 ± 1370 ng/mL
SMILES: CCN1CCC[C@H]1CNC(=O)c1cc(S(N)(=O)=O)ccc1OC [Levosulpiride, 5-(amino-sulfonyl)-N-[(1-ethyl-2-pyrrolidinyl)methyl]-2-methoxy benzamide]
intravenous dose excreted unchanged in the urine ([2]; intravenous ref 6): 70–90% | half-life ([2]; oral ref 4): about 6 h | oral bioavailability ([2]; oral ref 4): less than 25% | oral dose excreted unchanged in the urine ([2]; oral ref 6): 15–25%
